2 compounds from article PMC12421961, “PmeR, a TetR-like transcriptional regulator, is involved in both auxin signaling and virulence in the plant pathogen Pseudomonas syringae strain PtoDC3000” (mBio, 2025) can be followed below.

For one data set, the target named is T1, PmeR (Pseudomonas syringae group genomosp. 3, UniProt Q87X86).
T1 construct: gene PSPTO_4302; full-length coding region (672 bp), N-terminal His tag, pET-28a, E. coli BL21(DE3), codon-optimized; nickel column; tag removal not mentioned
Briefly: EMSA, release of PmeR from […]-labelled operator DNA. The note with it: 6.25 nM PmeR, 1.5 nM pmeR-mexA intergenic DNA probe, pH 8.0, 25 °C; lowest complete-release concentration in a dilution series, not a Kd or IC50. Format: binding.

Data set [1] deals with T2, PmeR (TetR-like regulator) (Pseudomonas syringae strain PtoDC3000) (UniProt Q87X86).
T2 sequence: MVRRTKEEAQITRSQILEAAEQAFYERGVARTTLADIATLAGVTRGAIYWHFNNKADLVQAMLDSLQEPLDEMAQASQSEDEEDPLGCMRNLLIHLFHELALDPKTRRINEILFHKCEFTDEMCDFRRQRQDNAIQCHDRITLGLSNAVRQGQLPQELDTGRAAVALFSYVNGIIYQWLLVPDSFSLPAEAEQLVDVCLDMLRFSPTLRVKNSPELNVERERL
Briefly: competition. The note with it: 25 mM Tris-acetate pH 8.0, 8 mM Mg-acetate, 10 mM KCl, 1 mM DTT, 460 uM HCl ([…].

For `N[C@@H](CCCCNC(=O)Cc1c[nH]c2ccccc12)C(=O)O` [IAA-Lys], at PmeR, the “concentration sufficient for complete shift to unbound DNA” value is listed as 750 µM. As for “CGGAATTCGGTGCGACGAACCATGGCAATAAGACCTCAAAAGATTCACCTCATGCGTGCATCTGGTGCATGCCTTGAGGTATGACCGGGCGGCATTTGTCTCGCCTTGTCCCGAACTGGCATTCAGCACCTTGAATAGTGGCCGAATGCGCAAAGCGGGTGTTTACAAACAACCGCGAATGTAAGTATATTCCTTAGCATGCTACTTATCTAGCCGAAATATTTTTTAACACTTCAACGTACTGTTGAGAAAACAGGCTCCTGCCCCGAGGATCTTCGGTACCCC (double strand) [pmeR-mexA intergenic region probe]”, in data set [1], the binding result was “binds”.
